Assay results published in patent US20240294531A1, “COVALENT HETEROCYCLES AND USES THEREOF” (Kumquat Biosciences Inc., priority 2022, published 2024).

Legend:
BTK wildtype protein = BTK wildtype protein (Homo sapiens (Human), UniProt Q06187); assay: BTK wildtype HTRF displacement assay; type: binding; details: 1-hour incubation; read-out: BTK (wt) IC50
Description: (§1) The ability of a compound to bind BTK wildtype or BTK C481S proteins was measured using an HTRF displacement assay. The assay measures the ability of a compound to displace a tracer ligand bound to the active site of BTK wildtype or BTK C481 S proteins.
(§2) Test compounds were prepared as 10 mM stock solutions in DMSO (Fisher cat #BP231-100). Compounds to be assayed were dispensed using an Echo 650 acoustic dispenser (Beckman Coulter) on a 384 well plate in 6 doses applying four-fold dilutions from the highest concentration of 5 μM. N-terminal GST-tagged recombinant full-length BTK wildtype protein and BTK C481 S protein 2-659 were purchased from Carna Biosciences, Inc (Kobe, Japan). BTK wildtype or BTK C481S protein was separately incubated with compound in assay buffer containing kinase tracer 239 (Thermo Fisher) and Mab anti GST-Th (PerkinElmer). After a 1-hour incubation at room temperature, the HTRF signal was measured using SPARK plate reader (Tecan) using the TR fluorescence mode. The HTRF ratio is calculated for DMSO, no protein control and compound samples using the following equation: HTRF ratio=Emmision665/Emmision620×10^4. The signal for the no protein control samples was used to subtract background noise from the DMSO and compound samples. Background subtracted HTRF ratios are used to calculate the percent inhibition, where DMSO controls are set to 0 percent inhibition. The percent inhibition is plotted as a function of compound concentration and IC50 values were calculated from a four-parameter logistic fit in Prism v9.4 (GraphPad), where the bottom and top are constrained to 0 and 100, respectively.

BTK C481S protein = BTK C481S protein (Homo sapiens (Human), UniProt Q06187, C481S); assay: BTK C481S HTRF displacement assay; type: binding; details: 1-hour incubation
Chain of BTK C481S protein (Q06187 2-659 C481S): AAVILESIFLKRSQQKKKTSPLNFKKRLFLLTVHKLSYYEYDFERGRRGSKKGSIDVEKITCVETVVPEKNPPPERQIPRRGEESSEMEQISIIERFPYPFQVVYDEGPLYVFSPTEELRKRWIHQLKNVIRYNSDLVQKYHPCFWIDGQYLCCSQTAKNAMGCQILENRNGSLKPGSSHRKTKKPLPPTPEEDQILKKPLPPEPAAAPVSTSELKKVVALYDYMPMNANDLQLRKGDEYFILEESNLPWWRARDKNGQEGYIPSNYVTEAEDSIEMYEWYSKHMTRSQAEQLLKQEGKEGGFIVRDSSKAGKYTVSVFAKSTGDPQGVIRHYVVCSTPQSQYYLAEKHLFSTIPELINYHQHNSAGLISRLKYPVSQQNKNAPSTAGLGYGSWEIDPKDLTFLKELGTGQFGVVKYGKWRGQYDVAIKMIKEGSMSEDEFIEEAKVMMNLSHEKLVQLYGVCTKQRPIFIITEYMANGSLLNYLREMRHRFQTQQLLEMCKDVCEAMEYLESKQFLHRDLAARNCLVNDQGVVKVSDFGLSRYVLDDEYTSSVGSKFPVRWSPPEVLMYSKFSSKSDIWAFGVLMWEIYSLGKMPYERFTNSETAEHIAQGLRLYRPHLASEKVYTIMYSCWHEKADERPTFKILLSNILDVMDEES
Description: as §1, §2
The same assay was used to measure the activity of selected compounds of the formula TBM-L-hydrogen. Using the IC50 value observed for a given reversible test compound, the KI of the test compound can be assessed using the formula KI=IC50/(1+([Tracer]/Kd)), wherein the tracer concentration in the assay [Tracer] is 50 nM and the tracer Kd for BTK C481S is 54 nM.

Chain of BTK wildtype protein (Q06187 2-659): as the sequence (Q06187 2-659 C481S) above, with S480C counted along it

Row | Compound | IC50 (BTK wildtype protein) [nM] | IC50 (BTK C481S protein) [nM]
1 | CN(C(=O)n1cncn1)[C@H]1CCCC[C@H](n2nc(-c3ccc(Oc4ccccc4)cc3)c(C(N)=O)c2N)C1 [Compound 252, N-((1S,3S)-3-(5-amino-4-carbamoyl-3-(4-phenoxyphenyl)-1H-pyrazol-1-yl)cycloheptyl)-N-methyl-1H-1,2,4-triazole-1-carboxamide] | ≤ 1000 | ≤ 1000
2 | COc1ccc(C)cc1C(=O)NCc1ccc(-c2nn(CC3CCCCN3C(=O)n3cnnn3)c3ncnc(N)c23)cc1 (stereo not shown) [Compound 158, N-(4-(1-((1-(1H-tetrazole-1-carbonyl)piperidin-2-yl)methyl)-4-amino-1H-pyrazolo[3,4-d]pyrimidin-3-yl)benzyl)-2-methoxy-5-methylbenzamide] | ≤ 1000 | > 1000
3 | COc1ccc(F)cc1C(=O)NCc1ccc(-c2nn(C[C@@H](C)N(C)C(=O)n3cncn3)c3ncnc(N)c23)cc1 [Compound 125, (R)-N-(1-(4-amino-3-(4-((5-fluoro-2-methoxybenzamido)methyl)phenyl)-1H-pyrazolo[3,4-d]pyrimidin-1-yl)propan-2-yl)-N-methyl-1H-1,2,4-triazole-1-carboxamide] | ≤ 1000 | ≤ 1000
4 | COc1ccc(F)cc1C(=O)NCc1ccc(-c2nn(CC3CCC(O)CN3C(=O)n3cncn3)c3ncnc(N)c23)cc1 (stereo not shown) [Compound 246, N-(4-(4-amino-1-((5-hydroxy-1-(1H-1,2,4-triazole-1-carbonyl)piperidin-2-yl)methyl)-1H-pyrazolo[3,4-d]pyrimidin-3-yl)benzyl)-5-fluoro-2-methoxybenzamide] | ≤ 1000 | ≤ 1000
5 | CN(C(=O)n1cncn1)C1CCCN(c2ncnc3[nH]ccc23)C1 (stereo not shown) [Compound 192, N-(1-(7H-pyrrolo[2,3-d]pyrimidin-4-yl)piperidin-3-yl)-N-methyl-1H-1,2,4-triazole-1-carboxamide] | > 1000 | > 1000
6 | COc1ccc(C)cc1C(=O)NCc1ccc(-c2nn(C3CCCC(N(C)C(=O)n4cnnn4)C3)c3ncnc(N)c23)cc1 (stereo not shown) [Compound 219, N-(3-(4-amino-3-(4-((2-methoxy-5-methylbenzamido)methyl)phenyl)-1H-pyrazolo[3,4-d]pyrimidin-1-yl)cyclohexyl)-N-methyl-1H-tetrazole-1-carboxamide] | ≤ 1000 | ≤ 1000
7 | COc1ccc(F)cc1C(=O)NCc1ccc(-c2nn(C[C@H]3CCCN3C(=O)n3cncn3)c3ncnc(N)c23)cc1 [Compound 292, (R)-N-(4-(1-((1-(1H-1,2,4-triazole-1-carbonyl)pyrrolidin-2-yl)methyl)-4-amino-1H-pyrazolo[3,4-d]pyrimidin-3-yl)benzyl)-5-fluoro-2-methoxybenzamide] | ≤ 1000 | ≤ 1000
8 | COc1ccc(F)cc1C(=O)NCc1ccc(-c2nn(C(C)C3CCCCN3C(=O)n3cncn3)c3ncnc(N)c23)cc1 (stereo not shown) [Compound 304, N-(4-(1-(1-(1-(1H-1,2,4-triazole-1-carbonyl)piperidin-2-yl)ethyl)-4-amino-1H-pyrazolo[3,4-d]pyrimidin-3-yl)benzyl)-5-fluoro-2-methoxybenzamide] | ≤ 1000 | ≤ 1000
9 | COc1ccc(F)cc1C(=O)NCc1ccc(-c2nn(CC3CCC(N(C)C(=O)n4cncn4)C3)c3ncnc(N)c23)cc1 (stereo not shown) [Compound 311, N-(3-((4-amino-3-(4-((5-fluoro-2-methoxybenzamido)methyl)phenyl)-1H-pyrazolo[3,4-d]pyrimidin-1-yl)methyl)cyclopentyl)-N-methyl-1H-1,2,4-triazole-1-carboxamide] | ≤ 1000 | ≤ 1000
10 | COc1ccc(F)cc1C(=O)NCc1ccc(-c2nn(CC3CC(O)CCN3C(=O)n3cncn3)c3ncnc(N)c23)cc1 (stereo not shown) [Compound 298, N-(4-(4-amino-1-((4-hydroxy-1-(1H-1,2,4-triazole-1-carbonyl)piperidin-2-yl)methyl)-1H-pyrazolo[3,4-d]pyrimidin-3-yl)benzyl)-5-fluoro-2-methoxybenzamide] | > 1000 | > 1000
11 | COc1ccc(F)cc1C(=O)NCc1ccc(-c2nn(C[C@@H]3C[C@@H](F)CN3C(=O)n3cncn3)c3ncnc(N)c23)cc1 [Compound 221, N-(4-(4-amino-1-(((2S,4R)-4-fluoro-1-(1H-1,2,4-triazole-1-carbonyl)pyrrolidin-2-yl)methyl)-1H-pyrazolo[3,4-d]pyrimidin-3-yl)benzyl)-5-fluoro-2-methoxybenzamide] | > 1000 | ≤ 1000
12 | CC(C1CCNc2c(C(N)=O)c(-c3ccc(Oc4ccccc4)cc3)nn21)N(C)C(=O)n1cncn1 (stereo not shown) [Compound 205, 7-(1-(N-methyl-1H-1,2,4-triazole-1-carboxamido)ethyl)-2-(4-phenoxy-phenyl)-4,5,6,7-tetrahydro-pyrazolo[1,5-a]pyrimidine-3-carboxamide] | ≤ 1000 | ≤ 1000
13 | COc1ccc(F)cc1C(=O)NCc1ccc(-c2nn([C@H]3CC[C@@H](N(C)C(=O)n4cncn4)C3)c3ncnc(N)c23)cc1 [Compound 269, N-((1R,3S)-3-(4-amino-3-(4-((5-fluoro-2-methoxybenzamido)methyl)phenyl)-1H-pyrazolo [3,4-d]pyrimidin-1-yl)cyclopentyl)-N-methyl-1H-1,2,4-triazole-1-carboxamide] | ≤ 1000 | ≤ 1000
14 | NC(=O)c1c(-c2ccc(Oc3ccccc3)cc2)nn(C2CCCN(C(=O)n3cncn3)C2)c1N (stereo not shown) [Compound 163, 1-(1-(1H-1,2,4-triazole-1-carbonyl)piperidin-3-yl)-5-amino-3-(4-phenoxyphenyl)-1H-pyrazole-4-carboxamide] | ≤ 1000 | ≤ 1000
15 | NC(=O)c1c(-c2ccc(Oc3ccccc3)cc2)nn(C2CCC3(C2)CN(C(=O)n2cncn2)C3)c1N (stereo not shown) [Compound 165, 1-(2-(1H-1,2,4-triazole-1-carbonyl)-2-azaspiro[3.4]octan-6-yl)-5-amino-3-(4-phenoxyphenyl)-1H-pyrazole-4-carboxamide] | ≤ 1000 | ≤ 1000
16 | NC(=O)c1nn2c(C3CCCCN3C(=O)n3cncn3)ccnc2c1-c1ccc(Oc2ccccc2)cc1 (stereo not shown) [Compound 277, 7-(1-(1H-1,2,4-triazole-1-carbonyl)piperidin-2-yl)-3-(4-phenoxy-phenyl)pyrazolo[1,5-a]pyrimidine-2-carboxamide] | > 1000 | > 1000

The remaining lines, values ahead:

Row | IC50 (BTK wildtype protein) [nM] | IC50 (BTK C481S protein) [nM] | Compound
17 | ≤ 1000 | ≤ 1000 | NC(=O)c1c(-c2ccc(Oc3ccccc3)cc2)nn2c1NCCC2C1CCCN(C(=O)n2cncn2)C1 (stereo not shown) [Compound 207, 7-(1-(1H-1,2,4-triazole-1-carbonyl)piperidin-3-yl)-2-(4-phenoxy-phenyl)-4,5,6,7-tetrahydro-pyrazolo[1,5-a]pyrimidine-3-carboxamide]
18 | ≤ 1000 | > 1000 | COc1ccc(F)cc1C(=O)NCc1ccc(-c2nn(C3(CN(C)C(=O)n4cncn4)CC3)c3ncnc(N)c23)cc1 [Compound 188, N-((1-(4-amino-3-(4-((5-fluoro-2-methoxybenzamido)methyl)phenyl)-1H-pyrazolo[3,4-d]pyrimidin-1-yl)cyclopropyl)methyl)-N-methyl-1H-1,2,4-triazole-1-carboxamide]
19 | ≤ 1000 | ≤ 1000 | COc1ccc(F)cc1C(=O)NCc1ccc(-c2nn(C[C@@H]3C[C@H](F)CN3C(=O)n3cncn3)c3ncnc(N)c23)cc1 [Compound 208, N-(4-(4-amino-1-(((2S,4S)-4-fluoro-1-(1H-1,2,4-triazole-1-carbonyl)pyrrolidin-2-yl)methyl)-1H-pyrazolo[3,4-d]pyrimidin-3-yl)benzyl)-5-fluoro-2-methoxybenzamide]
20 | > 1000 | > 1000 | CN(C(=O)n1cncn1)c1ccccc1C1CCNc2c(C(N)=O)c(-c3ccc(Oc4ccccc4)cc3)nn21 (stereo not shown) [Compound 305, 7-(2-(N-methyl-1H-1,2,4-triazole-1-carboxamido)phenyl)-2-(4-phenoxyphenyl)-4,5,6,7-tetrahydropyrazolo[1,5-a] pyrimidine-3-carboxamide]
21 | > 1000 | > 1000 | COC[C@H](C1CCNc2c(C(N)=O)c(-c3ccc(Oc4ccccc4)cc3)nn21)N(C)C(=O)n1cncn1 (stereo partly drawn) [Compound 156, 7-((S)-2-methoxy-1-(N-methyl-1H-1,2,4-triazole-1-carboxamido)ethyl)-2-(4-phenoxyphenyl)-4,5,6,7-tetrahydropyrazolo[1,5-a] pyrimidine-3-carboxamide]
22 | ≤ 1000 | ≤ 1000 | CN(C(=O)n1cncn1)[C@@H]1CCC[C@@H](n2nc(-c3ccc(Oc4ccccc4)cc3)c(C(N)=O)c2N)C1 [Compound 247, N-((1R,3R)-3-(5-amino-4-carbamoyl-3-(4-phenoxyphenyl)-1H-pyrazol-1-yl)cyclohexyl)-N-methyl-1H-1,2,4-triazole-1-carboxamide]
23 | ≤ 1000 | ≤ 1000 | NC(=O)c1c(-c2ccc(Oc3ccccc3)cc2)nn(C2CCCCN(C(=O)n3cncn3)C2)c1N (stereo not shown) [Compound 159, 1-(1-(1H-1,2,4-triazole-1-carbonyl)azepan-3-yl)-5-amino-3-(4-phenoxyphenyl)-1H-pyrazole-4-carboxamide]
